Target: T1, MupG (Staphylococcus aureus, UniProt A0A0H2XHV5)
T1 sequence (A0A0H2XHV5 1-351): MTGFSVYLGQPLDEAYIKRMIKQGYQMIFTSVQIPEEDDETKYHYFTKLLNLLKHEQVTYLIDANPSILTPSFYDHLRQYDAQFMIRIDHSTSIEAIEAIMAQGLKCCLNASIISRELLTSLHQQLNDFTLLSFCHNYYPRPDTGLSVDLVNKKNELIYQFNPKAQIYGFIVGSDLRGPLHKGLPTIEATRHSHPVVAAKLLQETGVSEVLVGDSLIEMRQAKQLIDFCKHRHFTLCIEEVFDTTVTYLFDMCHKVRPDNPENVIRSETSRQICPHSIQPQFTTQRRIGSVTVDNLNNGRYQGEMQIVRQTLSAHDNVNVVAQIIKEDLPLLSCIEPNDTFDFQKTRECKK
Assay: LC-MS of hydrolysis by recombinant enzyme
Format: biochemical
Details: substrate in acetone extract of ΔmupG cytosol; 1 μg enzyme, 2.5 h, 37 °C; products MurNAc 6P and GlcNAc

## CC(=O)N[C@H]1[C@H](O[C@H]2[C@H](O)[C@@H](NC(C)=O)C(O)O[C@@H]2CO)O[C@H](COP(=O)(O)O)[C@@H](O)[C@@H]1O[C@H](C)C(=O)O (stereo partly shown) [MurNAc 6P-GlcNAc]
  LC-MS of hydrolysis by recombinant enzyme: recombinantly produced MupG cleaved MurNAc 6P-GlcNAc, releasing MurNAc 6P and GlcNAc

From article PMC6262408, “Recovery of the Peptidoglycan Turnover Product Released by the Autolysin Atl in Staphylococcus aureus Involves the Phosphotransferase System Transporter MurP and the Novel 6-phospho-N-acetylmuramidase MupG” (Frontiers in Microbiology, 2018)
